Patent US9217012B2, “Inhibitors of protein tyrosine phosphatases” (Indiana University Research and Technology Corporation, priority 2009, dated 2015)
Where “and” joins values, the source holds several entries; their conditions need not be identical. Equal values may be shown once. Entries after “also recorded” stand apart in the source; their conditions may differ. Read-outs that look alike come from different tables or passages of the source. Where a SMILES comes first, the peptide text is derived from it. [ ]: non-standard residue; d: D form. F2Pmp = N[CH](Cc1ccc(C(F)(F)P(=O)(O)O)cc1)C(=O)O

Columns and labels:
TC-PTP = TC-PTP (Homo sapiens (Human), UniProt P17706); test: PTP activity assay with pNPP substrate, TC-PTP; format: biochemical
Protocol: (§1) The PTP activity was assayed using p-nitrophenyl phosphate (pNPP) as a substrate in DMG buffer at 25° C. […] The reaction rate was measure using a SPECTRAMAX microplate spectrophotometer (Molecular Devices). For the determination of Km, the initial velocity and substrate concentration data were fitted to Michaelis-Menten equation using SIGMAPLOT. […] The assays were performed in 96-well plates. […] The reaction rate was measured using a Spectra Max Plus 384 Microplate Spectrophotometer (Molecular Devices). […] The reactions were incubated at room temperature for 30 min and quenched with 5N NaOH. The absorbance at 405 nm was read on the SpectraMax Plus 384 Microplate Spectrophotometer. For the reversibility test, the enzyme was incubated with the inhibitor at room temperature for 30 min before pNPP was added to initiate the reaction. The reaction was then incubated at room temperature for 30 min and quenched and read. […] Data were fitted using SigmaPlot Enzyme Kinetics Module (Systat Software, Inc.)

PTP1B = PTP1B (Homo sapiens (Human), UniProt P18031); test: PTP activity assay with pNPP substrate, PTP1B; format: biochemical
Protocol: as §1

[1] = tested on: EGFR phosphorylation in PTP1B−/− mouse embryo fibroblast cells; test: Effect of TC-PTP inhibitor on EGFR phosphorylation (anti-pTyr immunoblot); format: cell-based; conditions: for increase in EGFR phosphorylation compared to DMSO: EGF 2 ng/ml 10 min
Protocol: To determine the cellular efficacy of 10, its effect on tyrosine phosphorylation of EGFR, a known substrate of TC-PTP (Tiganis et al., 1998; Klingler-Hoffmann et al., 2001; Mattila et al., 2005) was assessed using an antibody against pTyr. The cells were incubated with 10 for 2 hr and subsequently treated either with or without EGF (2 ng/ml) for 10 min.
PTP1B^−/− cells were treated with TC-PTP inhibitor at indicated concentration for 2 h before EGF treatment. After EGF treatment (2 ng/ml) for 10 min, cells were lysed in 10 mM HEPES, pH 7.4, 150 mM NaCl, 10% Glycerol, 10 mM sodium phosphate, 10 mM sodium fluoride, 1 mM sodium pervanadate, 1 mM benzamidine, 1% Triton X-100, 10 μg/ml leupeptin, and 5 μg/ml aprotinin. Cell lysates were cleared by centrifugation at 15,000 rpm for 10 min. The lysate protein concentration was estimated using the BCA protein assay kit (PIERCE). To detect EGFR phosphorylation levels, 10 μg of anti-EGFR antibody (CELL SIGNALING, #2232) was added to 1 mg of cell lysate and incubated at 4° C. for 2 h. […] of protein A/G-agarose beads were then added and incubated for another 2 h. After extensive washing, the protein complex was boiled with sample buffer, separated by SDS-PAGE, transferred electrophoretically to PVDF membrane, and immunoblotted with anti-pTyr antibodies (MILLIPORE, #05-1050) followed by incubation with horseradish peroxidase-conjugated secondary antibodies. The blots were developed by the enhanced chemiluminescence technique (ECL kit, AMERSHAM BIOSCIENCES).
PTP1B^−/− mouse embryo fibroblast cells were treated with TC-PTP inhibitor at the indicated concentration for 2 h prior to EGF treatment. After EGF treatment (2 ng/mL) for 10 min, cells were lysed in 10 mM HNEPES, pH 7.4, […], 10% Glycerol, 10 mM sodium phosphate, 10 mM sodium fluoride, 1 mM sodium pervanadate, 1 mM benzamidine, 1% Triton X-100, 10 μg/mL leupeptin, and 5 μg/mL aprotinin. Cell lysates were cleared by centrifugation at 15 000 rpm for 10 min. The lysate protein concentration was estimated using the BAC protein assay kit (Pierce). To detect EGFR phosphorylation levels, 10 μg of anti-EGFR antibody (Cell Signaling, #2232) were added to 1 mg of cell lysate and incubated at 4° C. for 2 h. 20 μL of protein A/G-agarose beads were then added and incubated for another 2 hr. After extensive washing, the protein complex was boiled with sample buffer, separated by SDS-PAGE, transferred electrophoretically to a PVDF membrane, and immunoblotted with anti-pTyr antibodies (Millipore, #5-1050) followed by incubation with horseradish peroxidase conjugalated secondary antibodies. The blots were developed by enhanced chemiluminescence technique (ECL kit, Amersham Biosciences).
The cellular efficacy of compound 10 was assessed by examining its effect on tyrosine phosphorylation of EGFR, a known substrate of TC-PTP. Referring now to FIG. 2 B. PTP1B^−/− mouse embryo filbroblast cells were incubated with compound 10 at various concentrations for 2 h and subsequently treated either with or without EGF (2 ng/mL) for 10 min Inhibition of TC-PTP is expected to enhance endrogenous levels of phosphorylated EGFR. […] Remarkably, the phosphorylated form of EGFR is increased nearly 2-fold even at an inhibitor concentration of 5 nM (1.2×Ki).

SHP2 = SHP2 (Homo sapiens (Human), UniProt Q06124); test: PTP selectivity panel (pNPP), SHP2; format: biochemical; conditions: Table 3
Protocol: (§2) PTP activity was assayed using p-nitrophenyl phosphate (pNPP) as a substrate in DMG buffer (50 mM DMG, pH 7.0, 1 mM EDTA, 150 mM NaCl, 2 mM DTT, 0.1 mg/mL BSA) at 25° C. The assays were performed in 96-well plates. Normally, to determine the IC50 values, the reaction was initiated by the addition of enzyme (final concentration of 10 nM) to a reaction mixture (0.2 mL) containing 2 mM (Km for the substrate) pNPP with various concentrations of inhibitors. The reaction rate was measured using a Spectra Max Plus 384 Microplate Spectrophotometer (Molecular Devices). For compound 10, the final TC-PTP concentration was 0.04 nM. The reactions were incubated at room temperature for 30 min and quenched with 5N NaOH. The absorbance at 405 nm was read on the SpectraMax Plus 384 Microplate Spectrophotometer. For the reversibility test, the enzyme was incubated with the inhibitor at room temperature for 30 min before pNPP was added to initiate the reaction. The reaction was then incubated at room temperature for 30 min and quenched and read. […] To determine the mode of inhibition, the reactions were initiated by the additional enzyme (final concentration for TC-PTP was 0.4 nM and for PTP was 2 nM) to the reaction mixtures (0.2 mL) containing various concentrations of pNPP with different concentrations of the inhibitor. Data were fitted using SigmaPlot Enzyme Kinetics Module (Systat Software, Inc.)

He-PTP = He-PTP (Homo sapiens (Human), UniProt P35236); test: PTP selectivity panel (pNPP), He-PTP; format: biochemical; conditions: Table 3
Protocol: as §2

Lyp = Lyp (Homo sapiens (Human), UniProt Q9Y2R2); test: PTP selectivity panel (pNPP), Lyp; format: biochemical; conditions: Table 3
Protocol: as §2

FAP1 = FAP1 (Homo sapiens (Human), UniProt Q12923); test: PTP selectivity panel (pNPP), FAP1; format: biochemical; conditions: Table 3
Protocol: as §2

PTP-Meg2 = PTP-Meg2 (Homo sapiens (Human), UniProt P43378); test: PTP selectivity panel (pNPP), PTP-Meg2; format: biochemical; conditions: Table 3
Protocol: as §2

PTPα = PTPα (Homo sapiens (Human), UniProt P18433); test: PTP selectivity panel (pNPP), PTPα; format: biochemical; conditions: Table 3
Protocol: as §2

LAR = LAR (Homo sapiens (Human), UniProt P10586); test: PTP selectivity panel (pNPP), LAR; format: biochemical; conditions: Table 3
Protocol: as §2

CD45 = CD45 (Homo sapiens (Human), UniProt P08575); test: PTP selectivity panel (pNPP), CD45; format: biochemical; conditions: Table 3
Protocol: as §2

Cdc14A = Cdc14A (Homo sapiens (Human), UniProt Q9UNH5); test: PTP selectivity panel (pNPP), Cdc14A; format: biochemical; conditions: Table 3
Protocol: as §2

VHR = VHR (Homo sapiens (Human), UniProt P51452); test: PTP selectivity panel (pNPP), VHR; format: biochemical; conditions: Table 3
Protocol: as §2

VHX = VHX (Homo sapiens (Human), UniProt Q9NRW4); test: PTP selectivity panel (pNPP), VHX; format: biochemical; conditions: Table 3
Protocol: as §2

LMWPTP = LMWPTP (Homo sapiens (Human), UniProt P24666); test: PTP selectivity panel (pNPP), LMWPTP; format: biochemical; conditions: Table 3
Protocol: as §2

[2] = tested on: Src phosphorylation in PTP1B−/− mouse embryo fibroblast cells; test: Effect on Src phosphorylation (pSrc416, pSrc527 immunoblot); format: cell-based; conditions: 2 h treatment
Protocol: To study the effect of compound 10 on Src phosphorylation, PTP1B^−/− mouse embryo fibroblast cells were grown to 80% confluence before being treated with TC-PTP inhibitor 10 for 2 h. Cells were lysed, and the lysates were cleared by centrifugation at 15 000 rpm for 10 min. 30 μg of total proteins were boiled with sample buffer, separated by SDS-PAGE, transferred electrophoretically to a PVDF membrane, and immunoblotted with anti-pSrc416, anti-pSrc527 antibodies (Invitrogen 44-660G and 44-662G) and antic-Src antibody (Cell Singling Technology #2108) followed by incubation with horseradish peroxidase conjugated secondary antibodies. The blots were developed by the enhanced chemiluminesence technique (ECL kit, Amersham Biosciences).
To further investigate the specificity of compound 10 inside the cells, the ability of compound 10 to effect Src kinase phosphorylation within the same cells was measured. Src activity is regulated by phosphorylation at two distinct tyrosine residues. Autophosphorylation of Tyr416 in the kinase domain activates Src, while phosphorylation of Tyr527 in the C-terminal tail by the C-terminal Src kinase (Csk) blocks Src activity. Previous studies have shown that PTP1B can remove the inhibitory phosphate from pSrc527, while TC-PTP is capable of dephosphorylating pSrc416 (van Vilet et al., 2005; Bjorge, et al., 2000).

[3] = tested on: CD4 T-cells recovered from patients with type 1 diabetes; test: pSTAT5 response to IL-2 in CD4 T-cells from type 1 diabetes patients; format: cell-based, human; conditions: cells with elevated TC-PTP pre-treated with compound
Protocol: An increase in expression of TC-PTP type 1 diabetic subject correlates with a decrease in STAT5 activation (Long et al., 2010). The protein expression levels of STAT5, JAK1, JAK3, and the negative regulator, TC-PTP, and CD4 T-cells of control and type 1 diabetic subjects were measured. […] No differences were found in STAT5, JAK3, or JAK1 protein expression levels between cells from the control group and the group diagnosed with type 1 diabetes. In contrast, TC-PTP expression was uniform in cells recovered from the control group but was increased overall in cells collected from patients with type 1 diabetes. […] This increased expression of TC-PTP correlated with decreased levels of pSTAT5 levels measured after exposure to IL-2.

Sequence of TC-PTP (P17706 whole entry): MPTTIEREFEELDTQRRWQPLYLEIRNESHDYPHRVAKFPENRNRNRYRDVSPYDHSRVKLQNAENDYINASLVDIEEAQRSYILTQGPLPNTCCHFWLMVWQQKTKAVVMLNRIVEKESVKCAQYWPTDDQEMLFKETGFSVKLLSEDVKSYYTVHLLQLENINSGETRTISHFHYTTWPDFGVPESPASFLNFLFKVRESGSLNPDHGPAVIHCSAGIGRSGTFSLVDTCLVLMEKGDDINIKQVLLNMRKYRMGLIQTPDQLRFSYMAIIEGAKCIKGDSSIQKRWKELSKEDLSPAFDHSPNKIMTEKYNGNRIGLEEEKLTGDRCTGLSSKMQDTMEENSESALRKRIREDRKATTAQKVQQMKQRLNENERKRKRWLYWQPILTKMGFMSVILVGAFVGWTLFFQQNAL
Sequence of PTP1B (P18031 whole entry, species assumed): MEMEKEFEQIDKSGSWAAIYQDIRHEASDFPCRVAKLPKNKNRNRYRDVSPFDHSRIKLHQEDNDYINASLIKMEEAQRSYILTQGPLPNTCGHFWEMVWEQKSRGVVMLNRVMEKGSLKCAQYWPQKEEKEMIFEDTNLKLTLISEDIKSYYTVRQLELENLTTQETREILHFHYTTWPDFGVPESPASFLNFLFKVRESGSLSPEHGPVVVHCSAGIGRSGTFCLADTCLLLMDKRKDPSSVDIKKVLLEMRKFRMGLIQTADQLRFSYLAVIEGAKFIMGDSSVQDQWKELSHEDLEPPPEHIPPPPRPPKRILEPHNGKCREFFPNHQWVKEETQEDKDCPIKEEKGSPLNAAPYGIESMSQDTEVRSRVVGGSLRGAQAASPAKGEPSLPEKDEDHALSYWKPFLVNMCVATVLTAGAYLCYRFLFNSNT
Sequence of CD45 (P08575 26-1306, species assumed): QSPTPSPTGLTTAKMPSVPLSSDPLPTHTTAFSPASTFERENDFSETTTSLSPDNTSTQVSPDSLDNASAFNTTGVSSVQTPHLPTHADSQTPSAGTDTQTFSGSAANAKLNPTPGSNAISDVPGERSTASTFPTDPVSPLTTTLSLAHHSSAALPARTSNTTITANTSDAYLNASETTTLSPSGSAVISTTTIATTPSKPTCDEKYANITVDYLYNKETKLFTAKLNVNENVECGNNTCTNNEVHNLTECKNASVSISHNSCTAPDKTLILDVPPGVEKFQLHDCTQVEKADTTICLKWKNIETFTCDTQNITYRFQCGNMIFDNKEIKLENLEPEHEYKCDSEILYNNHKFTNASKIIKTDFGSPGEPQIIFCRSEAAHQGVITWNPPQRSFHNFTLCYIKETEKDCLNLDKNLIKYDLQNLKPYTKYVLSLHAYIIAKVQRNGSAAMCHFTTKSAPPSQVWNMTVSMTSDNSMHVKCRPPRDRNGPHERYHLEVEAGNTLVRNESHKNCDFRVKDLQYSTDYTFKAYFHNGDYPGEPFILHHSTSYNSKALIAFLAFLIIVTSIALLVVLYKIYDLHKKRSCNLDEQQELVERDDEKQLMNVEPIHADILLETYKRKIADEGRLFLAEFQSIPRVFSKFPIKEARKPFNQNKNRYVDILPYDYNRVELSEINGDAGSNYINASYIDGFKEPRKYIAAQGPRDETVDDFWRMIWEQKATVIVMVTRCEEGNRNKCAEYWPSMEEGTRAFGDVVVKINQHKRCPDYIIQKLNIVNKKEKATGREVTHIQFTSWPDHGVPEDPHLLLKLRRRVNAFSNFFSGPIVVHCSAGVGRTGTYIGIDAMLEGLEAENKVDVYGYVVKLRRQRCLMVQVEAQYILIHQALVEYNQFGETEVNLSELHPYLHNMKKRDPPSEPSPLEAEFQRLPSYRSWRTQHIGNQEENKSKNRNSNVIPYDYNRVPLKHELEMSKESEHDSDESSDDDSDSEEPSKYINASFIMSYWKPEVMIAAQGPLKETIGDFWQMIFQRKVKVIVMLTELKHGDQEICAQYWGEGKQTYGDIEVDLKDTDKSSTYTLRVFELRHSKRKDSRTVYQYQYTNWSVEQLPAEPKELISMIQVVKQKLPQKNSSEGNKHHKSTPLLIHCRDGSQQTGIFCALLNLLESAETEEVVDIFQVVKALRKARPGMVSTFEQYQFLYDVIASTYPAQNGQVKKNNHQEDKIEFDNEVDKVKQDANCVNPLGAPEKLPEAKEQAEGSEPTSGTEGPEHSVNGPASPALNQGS
Sequence of VHR (P51452 whole entry, species assumed): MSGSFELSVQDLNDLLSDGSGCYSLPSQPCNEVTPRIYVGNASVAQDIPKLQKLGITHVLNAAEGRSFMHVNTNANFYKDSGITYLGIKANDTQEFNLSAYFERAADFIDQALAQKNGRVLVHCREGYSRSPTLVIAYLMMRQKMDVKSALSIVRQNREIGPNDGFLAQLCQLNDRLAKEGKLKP
Sequence of PTP-Meg2 (P43378 whole entry): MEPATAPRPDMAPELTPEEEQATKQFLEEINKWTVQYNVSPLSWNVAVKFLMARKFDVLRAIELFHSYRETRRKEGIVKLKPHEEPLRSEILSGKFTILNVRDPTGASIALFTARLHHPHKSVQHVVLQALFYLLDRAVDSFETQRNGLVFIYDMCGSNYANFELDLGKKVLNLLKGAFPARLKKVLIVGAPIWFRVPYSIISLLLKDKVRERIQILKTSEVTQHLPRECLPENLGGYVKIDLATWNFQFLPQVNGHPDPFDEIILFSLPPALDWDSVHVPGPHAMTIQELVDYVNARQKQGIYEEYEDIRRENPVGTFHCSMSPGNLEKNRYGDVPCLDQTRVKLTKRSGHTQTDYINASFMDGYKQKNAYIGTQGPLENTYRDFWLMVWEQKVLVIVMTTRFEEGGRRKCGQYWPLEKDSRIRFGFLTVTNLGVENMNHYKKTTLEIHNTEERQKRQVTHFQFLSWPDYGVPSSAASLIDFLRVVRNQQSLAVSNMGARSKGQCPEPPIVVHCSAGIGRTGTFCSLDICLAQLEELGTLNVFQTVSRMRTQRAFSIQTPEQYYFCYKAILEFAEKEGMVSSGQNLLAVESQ
Sequence of LMWPTP (P24666 whole entry, species assumed): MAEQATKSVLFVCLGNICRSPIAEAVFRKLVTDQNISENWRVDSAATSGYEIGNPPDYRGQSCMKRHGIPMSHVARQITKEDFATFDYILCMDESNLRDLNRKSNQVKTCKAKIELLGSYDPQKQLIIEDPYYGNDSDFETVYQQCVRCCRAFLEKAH
Sequence of LAR (P10586 whole entry, looked up, species assumed): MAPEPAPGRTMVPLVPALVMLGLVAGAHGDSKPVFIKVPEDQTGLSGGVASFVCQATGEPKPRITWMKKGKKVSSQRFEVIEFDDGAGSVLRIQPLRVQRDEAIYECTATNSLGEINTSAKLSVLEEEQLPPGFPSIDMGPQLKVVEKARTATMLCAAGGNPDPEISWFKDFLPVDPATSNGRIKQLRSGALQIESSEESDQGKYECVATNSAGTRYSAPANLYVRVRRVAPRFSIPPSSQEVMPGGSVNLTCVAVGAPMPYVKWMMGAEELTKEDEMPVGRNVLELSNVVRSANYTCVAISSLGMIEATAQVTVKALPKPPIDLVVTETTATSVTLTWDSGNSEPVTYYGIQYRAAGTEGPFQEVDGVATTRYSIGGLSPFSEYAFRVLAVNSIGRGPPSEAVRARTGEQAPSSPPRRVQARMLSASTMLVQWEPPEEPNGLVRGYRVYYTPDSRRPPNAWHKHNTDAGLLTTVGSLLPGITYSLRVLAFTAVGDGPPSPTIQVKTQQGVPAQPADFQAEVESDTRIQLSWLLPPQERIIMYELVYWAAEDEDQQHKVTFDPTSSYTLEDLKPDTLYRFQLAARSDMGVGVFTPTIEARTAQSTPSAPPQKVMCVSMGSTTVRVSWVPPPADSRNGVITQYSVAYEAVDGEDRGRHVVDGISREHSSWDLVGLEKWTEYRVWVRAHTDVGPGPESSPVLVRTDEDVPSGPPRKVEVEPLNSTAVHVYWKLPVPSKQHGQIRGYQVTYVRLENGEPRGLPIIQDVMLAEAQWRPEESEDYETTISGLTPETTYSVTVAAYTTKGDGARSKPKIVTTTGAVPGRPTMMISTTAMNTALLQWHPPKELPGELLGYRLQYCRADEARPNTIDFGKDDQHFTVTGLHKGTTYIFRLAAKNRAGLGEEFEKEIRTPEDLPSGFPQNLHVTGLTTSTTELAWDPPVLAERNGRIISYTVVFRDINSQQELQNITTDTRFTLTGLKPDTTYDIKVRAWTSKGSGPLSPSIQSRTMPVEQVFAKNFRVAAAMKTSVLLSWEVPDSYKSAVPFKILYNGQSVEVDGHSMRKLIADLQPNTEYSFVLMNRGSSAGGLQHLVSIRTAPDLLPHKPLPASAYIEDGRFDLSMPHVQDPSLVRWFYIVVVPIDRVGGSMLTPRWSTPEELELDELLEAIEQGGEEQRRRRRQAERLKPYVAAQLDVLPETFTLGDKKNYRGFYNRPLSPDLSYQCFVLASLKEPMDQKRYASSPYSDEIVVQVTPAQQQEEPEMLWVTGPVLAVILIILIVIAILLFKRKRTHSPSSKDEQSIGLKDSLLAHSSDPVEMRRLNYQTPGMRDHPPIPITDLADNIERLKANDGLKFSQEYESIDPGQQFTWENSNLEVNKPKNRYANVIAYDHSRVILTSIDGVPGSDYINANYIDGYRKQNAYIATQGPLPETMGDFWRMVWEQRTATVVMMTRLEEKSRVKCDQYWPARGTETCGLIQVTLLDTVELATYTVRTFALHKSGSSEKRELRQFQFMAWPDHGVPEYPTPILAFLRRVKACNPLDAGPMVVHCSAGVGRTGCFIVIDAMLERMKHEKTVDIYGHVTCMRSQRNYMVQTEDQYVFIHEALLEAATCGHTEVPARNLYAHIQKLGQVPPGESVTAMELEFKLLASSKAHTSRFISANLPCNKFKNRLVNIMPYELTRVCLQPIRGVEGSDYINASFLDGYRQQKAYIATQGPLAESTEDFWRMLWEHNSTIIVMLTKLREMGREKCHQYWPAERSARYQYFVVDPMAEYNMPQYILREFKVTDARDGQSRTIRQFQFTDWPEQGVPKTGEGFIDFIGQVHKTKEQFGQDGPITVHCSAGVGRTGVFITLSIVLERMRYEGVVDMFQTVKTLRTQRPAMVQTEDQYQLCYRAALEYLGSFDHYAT

## CC(=O)NCCCCC(NC(=O)C(Cc1ccc(C(F)(F)P(=O)(O)O)cc1)NC(C)=O)C(N)=O (stereo not drawn) [Compound 4] (Ac-[F2Pmp]-Lys(Ac)-NH2; configuration not given here)
TC-PTP; 2 mM pNPP, DMG buffer, 25° C., Table 1, read-out: IC50 for TC-PTP
  IC50: 2000 nM
PTP1B; 2 mM pNPP, DMG buffer, 25° C., Table 1
  IC50: 2000 nM

## CCc1ccc(C(=O)NCCCCC(NC(=O)C(Cc2ccccc2)NC(=O)C(Cc2ccccc2)NC(=O)COC2CC(C)CCC2C(C)C)C(N)=O)cc1 (stereo not drawn) [Compound 11]
[1]; 200 nM
  effect on EGFR phosphorylation: no effect

## CCc1ccc(C(=O)NCCCCC(NC(=O)C(Cc2ccc(C(F)(F)P(=O)(O)O)cc2)NC(=O)C(Cc2ccccc2)NC(=O)COC2CC(C)CCC2C(C)C)C(N)=O)cc1 (stereo not drawn) [Compound 10]
TC-PTP; IC50 with TC-PTP preincubation, enzyme preincubated with inhibitor 30 min, 0.04 nM TC-PTP
  IC50: 8.7 ± 1.4 nM
TC-PTP; IC50 without TC-PTP preincubation, no preincubation, 0.04 nM TC-PTP
  IC50: 9.2 ± 1.4 nM
TC-PTP; TC-PTP versus PTP1B
  selectivity for TC-PTP over PTP1B: 8 fold and 5.6 fold
TC-PTP; Table 3, Example 13, read-out: Ki (TC-PTP)
  Ki: 4.3 ± 0.2 nM
TC-PTP; kinetic analysis
  mode of inhibition of TC-PTP: reversible TC-PTP inhibitor; also recorded: reversible and competitive inhibitor
TC-PTP; tight binding inhibition equation, Table 1, read-out: Ki for TC-PTP
  Ki: 4.1 ± 0.2 nM
TC-PTP; versus SHP2, Lyp, HePTP, PTP-Meg2, FAP1, CD45, LAR, PTPa, VHR, VHX, CDC14A, low molecular weight PTP
  selectivity versus a panel of PTPs: more than 200 fold
PTP1B; Table 3, Example 13, read-out: Ki (PTP1B)
  Ki: 34 ± 2.8 nM
PTP1B; kinetic analysis
  mode of inhibition of PTP1B: reversible and competitive inhibitor
PTP1B; tight binding inhibition equation, Table 1, read-out: Ki for PTP1B
  Ki: 23.1 ± 0.7 nM
SHP2
  Ki: > 1000 nM
He-PTP
  Ki: > 1000 nM
Lyp
  Ki: > 1000 nM
FAP1
  Ki: > 1000 nM
PTP-Meg2
  Ki: > 1000 nM
PTPα
  Ki: > 1000 nM
LAR
  Ki: > 1000 nM
CD45
  Ki: > 1000 nM
Cdc14A
  Ki: > 1000 nM
VHR
  Ki: > 1000 nM
VHX
  Ki: > 1000 nM
LMWPTP
  Ki: > 1000 nM
[1]; 0-50 nM, 2 h
  effect on EGFR phosphorylation, dose dependence: enhanced EGFR phosphorylaltion in a dose-dependent fashion; also recorded: augmented EGFR phosphorylation in a dose dependent manner
[1]; 5 nM, 2 h
  increase in EGFR phosphorylation compared to DMSO: ~2 fold and 1.9 fold
[1]; 10 nM, 2 h
  increase in EGFR phosphorylation compared to DMSO: 3.4 fold
[1]; 20 nM, 2 h
  increase in EGFR phosphorylation compared to DMSO: 3.9 fold
[1]; 50 nM, 2 h
  increase in EGFR phosphorylation compared to DMSO: 5.0 fold
[2]
  pSrc416 phosphorylation: dose-dependent increase
  pSrc527 phosphorylation: no significant change
[3]
  rescue of decreased response to IL-2 (pSTAT5): rescued in a concentration dependent manner
